{"source": "patent US9388163B2", "about": "“Multifunctional radical quenchers for the treatment of mitochondrial dysfunction” (Arizona Board of Regents, a Body Corporate of the State of …, priority 2011, dated 2016)", "key": {"[1]": {"conditions": "James et al. (2005); cited from earlier work"}, "FRDA lymphocyte": {"test_system": "FRDA lymphocyte", "assay": "Mitochondrial bioenergetics assessment: total cellular ATP content", "assay_type": "cell-based", "conditions": "for cellular ATP levels: after forty hours, at lower concentration (FIG. 3)", "description": "XI. Mitochondrial Bioenergetics Assessment\nThe use of CoQ10 analogues and methylene blue analogues to normalize and restore the respiratory chain activities provides valuable therapeutic approach for mitochondrial diseases. The reductions of mitochondrial respiratory chain activity in Friedreich ataxia (FRDA) patients have been reported. The efficiency of oxidative phosphorylation was evaluated in FRDA lymphocyte (GM15850) in presence of tested CoQ10 analogues and methylene blue analogues by measuring total cellular ATP content using (ViaLight®-Plus ATP monitoring reagent kit, Lonza).\nFRDA lymphocyte cell lines were obtained from Coriell Cell Repositories. FRDA lymphocytes were cultured under glucose-free media supplemented with galactose for two weeks to force energy production predominantly through oxidative phosphorylation rather than glycolysis. Lymphocytes were cultured in RPMI 1640 medium glucose-free supplemented with 25 mM galactose, 2 mM glutamine and 1% penicillin-streptomycin, and 10%, dialyzed fetal bovine serum FBS (<0.5 μg/mL). Briefly, lymphocytes (2×10^5 cell/mL), were plated (1 mL in 12-well plates) and treated with the test compounds at final concentrations of 50, 125. […] Cells were transferred (100 μL) to 96-well microtiter black-walled cell culture plates. The total intracellular ATP level was measured in a luminator (Clarity™ luminescence microplate reader) with the ATP Bioluminescence Assay Kit (ViaLight®-Plus ATP monitoring reagent kit, Lonza) following the manufacturer's instructions. Carbonyl cyanide-p-trifluormethoxy-phenylhydrazone (FCCP) and oligomycin were used as control for inhibition of ATP synthesis."}, "[2]": {"test_system": "bovine heart mitochondrial complex (I, III, IV)", "assay": "NADH oxidase inhibition assay (beef heart submitochondrial particles)", "assay_type": "biochemical", "description": "X. NADH Oxidase Inhibition Assay\nBeef heart mitochondria were obtained by a large-scale procedure. Inverted submitochondrial particles (SMP) were prepared by the method of Matsuno-Yagi and Hatefi (J. Biol. Chem. 260 (1985), p. 14424), and stored in a buffer containing 0.25 M sucrose and 10 mM Tris-HCl (pH 7.4) at −80° C. Inhibitory effects of compounds on bovine heart mitochondrial complex (I, III, IV) were evaluated. Maximal dimethyl sulfoxide concentration never exceeded 2% and had no influence on the control enzymatic activity. Beef heart SMP were diluted to 0.5 mg/mL. The enzymatic activities were assayed at 30° C. and monitored spectrophotometrically with a Beckman Coulter DU-530 (340 nm, ε=6.22 mM^−1 cm^−1). NADH oxidase activity was determined in a reaction medium (2.5 mL) containing 50 mM Hepes, pH 7.5, containing 5 mM MgCl2. The final mitochondrial protein concentration was 30 μg/mL. After the pre-equilibration of SMP with inhibitor for 5 min, the initial rates were calculated from the linear portion of the traces."}, "FRDA cell line": {"test_system": "FRDA cell line", "assay": "Trypan blue exclusion cell viability assay, DEM-stressed cells", "assay_type": "cell-based", "conditions": "FRDA cells stressed with DEM", "description": "(§1) Friedreich's Ataxia lymphocytes and control cells (Coriell, catalogue number GM158150, and GM158151, respectively) were cultured in RPMI (GIBCO, Grand island, NY, USA) with 15% FBS (Fisher Scientific, TX, USA), 2 mM glutamine (HyClone, South Logan, Utah, USA) and 1% penicillin-streptomycin mix antibiotics (Cellgro, Manassas, Va., USA) supplements. Cells were maintained in the log phase at a concentration of between 1×10^5 and 1×10^6 cells/mL.\nV. Trypan Blue Cell Viability Assay\nCell viability determined by trypan blue exclusion assay: This technique was used to assess the cytoprotective effects of the invention compounds in cultured cells pharmacologically treated to induce cell death by GSH depletion. DEM was used to deplete cellular GSH and induce oxidative stress. The viability of DEM-treated cells was determined by their ability to exclude the dye trypan blue. Viable cells exclude trypan blue; whereas, non-viable cells take up the dye and stain blue. Briefly, cells were seeded at a density of 1×10^6 cells/mL and treated with different concentrations of the invention compounds. Cells were incubated at 37° C. in a humidified atmosphere of 5% CO2 in air for three hours with 5 mM DEM. Cell viability was determined by staining cells with 0.4% trypan blue using a hemocytometer. At least 500 cells were counted for each experimental group. At the time of assay, >95% of DEM-treated cells were trypan blue positive; whereas, in non-DEM treated control cell cultures >95% cells were viable. Cell viability was expressed as the percentage of control. Data are expressed as means±S.E.M (n=3)."}, "CEM leukemia cells": {"test_system": "CEM leukemia cells", "assay": "Suppression of ROS production (DCFH-DA, flow cytometry) in DEM-treated cells", "assay_type": "cell-based", "conditions": "CEM cells treated with DEM, untreated control 100, treated control 0", "description": "as §1, with “Leukemic CEM” for “Friedreich's Ataxia lymphocytes and control”, “(ATCC®,” for “(Coriell,”, “CRL-2264)” for “GM158150, and GM158151, respectively)”, “10%” for “15%”\nCellular ROS production can be monitored using 2′,7′-dichlorodihydrofluorescein diacetate (DCFH-DA) (LeBel et al. (1992) Chem. Res. Toxicol. 5, 227-231) (Molecular Probes, Eugene, Oreg., USA), a membrane permeable and oxidant-sensitive fluorescent dye. DCFH-DA is a non-fluorescent derivative of fluorescein that emits fluorescence after being oxidized by hydrogen peroxide and other ROS. The emitted fluorescence is directly proportional to the concentration of hydrogen peroxide. DCFH-DA is nonionic and nonpolar and is easily taken up by cells. Once inside the cell, DCFH-DA is hydrolyzed by cellular esterases to non-fluorescent DCFH which traps the dye in the cell. In the presence of ROS including hydrogen peroxide, DCFH is oxidized to the highly fluorescent compound dichlorofluorescein (DCF). The intracellular DCF fluorescence is used as an index of cellular ROS production.\nCellular oxidative stress was induced by pharmacological depletion of glutathione (GSH) using the chemical diethylmaleate (DEM). […] The compounds tested were prepared by first making stock solutions (1 mM) in dimethylsulfoxide (DMSO). Cells were treated with 5 mM DEM for 30 minutes and collected by centrifugation at 300×g for 3 min and then washed twice with Phosphate Buffer Saline (PBS) (Invitrogen, N.Y., USA). Cells were re-suspended in PBS buffer+10 mM glucose and incubated at 37° C. in the dark for 20 min with 10 μM DCFH-DA. Cells were collected by centrifugation at 300×g for 3 min and then washed twice with PBS buffer. The samples were analyzed immediately by flow cytometry (Becton-Dickinson FACS Caliber), (Cell Quest software, BD Biosciences) using 488 nm excitation laser and FL1-H channel 538 nm emission filter. In each analysis, 10,000 events were recorded after cell debris were electronically gated out. Results obtained were verified by running duplicates and repeating experiments N=3 independent experiments. Authentic hydrogen peroxide was used as a positive control."}, "leukemia CEM lymphocytes": {"test_system": "leukemia CEM lymphocytes", "assay": "Suppression of lipid peroxidation (C11-BODIPY 581/591, FACS) in DEM-treated cells", "assay_type": "cell-based", "conditions": "CEM cells treated with DEM, untreated control 100, treated control 0", "description": "as §1, with “Leukemic CEM” for “Friedreich's Ataxia lymphocytes and control”, “(ATCC®,” for “(Coriell,”, “CRL-2264)” for “GM158150, and GM158151, respectively)”, “10%” for “15%”\nMeasurement of C11-BODIPY^581/591 Oxidation in Cell Culture\nLipid peroxidation in cells was detected by utilizing the oxidant-sensitive lipophilic probe C11 BODIPY^581/591. […] Cells were treated with 500 nM C11 BODIPY^581/591 in phenol red-free RPMI-1640 media and incubated at 37° C. in the dark for 30 minutes. The cells were washed twice with phosphate buffered saline and oxidative stress was induced with 5 mM DEM in phenol red-free RPMI-1640 media for 90 minutes. Treated cells were collected by centrifugation at 300×g for 3 minutes and then washed twice with phosphate buffered saline. Cells were re-suspended in 250 μL of phosphate buffered saline and were analyzed by FACS (FACS Calibur flow cytometer, Becton Dickinson) to monitor the change in intensity of the C11 BODIPY^581/591 green (oxidized) fluorescence signal."}}, "data": [{"molecule": "COC1=C(OC)C(=O)C(C/C=C(\\C)CC/C=C(\\C)CC/C=C(\\C)CC/C=C(\\C)CC/C=C(\\C)CC/C=C(\\C)CC/C=C(\\C)CC/C=C(\\C)CC/C=C(\\C)CCC=C(C)C)=C(C)C1=O", "note": "[coenzyme Q10]", "values": [{"measurement": "calculated octanol-water partition coefficient", "setting": "[1]", "result": "> 10^20"}]}, {"molecule": "CN(C)c1ccc2nc3ccc(=[N+](C)C)cc-3sc2c1", "note": "[methylene blue, reference compound]", "values": [{"measurement": "cellular ATP levels", "setting": "FRDA lymphocyte", "result": "significantly increased cellular ATP levels"}]}, {"molecule": "CCCCCCCc1c(C)n(O)c(C)c(OC)c1=O", "note": "[CPD-5, 3-heptyl-1-hydroxy-5-methoxy-2,6-dimethylpyridin-4(1H)-one]", "values": [{"measurement": "NADH oxidase (complex I, III, IV) activity (%)", "setting": "[2]; 5 μM compound", "result": "44.5 ± 3.6", "unit": "%"}, {"measurement": "NADH oxidase (complex I, III, IV) activity (%)", "setting": "[2]; 10 μM compound", "result": "33.5 ± 2.2", "unit": "%"}, {"measurement": "NADH oxidase (complex I, III, IV) activity (%)", "setting": "[2]; l μM compound", "result": "74.5 ± 6.9", "unit": "%"}, {"measurement": "viability at 0.1 µM", "setting": "FRDA cell line; 0.1 μM", "result": "12 ± 6", "unit": "%"}, {"measurement": "viability at 0.5 µM", "setting": "FRDA cell line; 0.5 μM", "result": "17 ± 7", "unit": "%"}, {"measurement": "viability at 2.5 µM", "setting": "FRDA cell line; 2.5 μM", "result": "14 ± 3", "unit": "%"}, {"measurement": "% of scavenging activity (ROS)", "setting": "CEM leukemia cells; 0.25 μM", "result": "21.0 ± 5.5", "unit": "%"}, {"measurement": "% of scavenging activity (ROS)", "setting": "CEM leukemia cells; 2.5 μM", "result": "26.4 ± 4.4", "unit": "%"}, {"measurement": "% of scavenging activity (ROS)", "setting": "CEM leukemia cells; 10 μM", "result": "0 ± 10", "unit": "%"}, {"measurement": "Scavenging activity (%) (lipid peroxidation)", "setting": "leukemia CEM lymphocytes; 1 μM", "result": "11 ± 1.8", "unit": "%"}, {"measurement": "Scavenging activity (%) (lipid peroxidation)", "setting": "leukemia CEM lymphocytes; 2.5 μM", "result": "16 ± 1.8", "unit": "%"}, {"measurement": "Scavenging activity (%) (lipid peroxidation)", "setting": "leukemia CEM lymphocytes; 5 μM", "result": "2.2 ± 2.3", "unit": "%"}]}, {"molecule": "CN(C)c1ccc2nc3ccc(=O)cc-3sc2c1", "note": "[CPD-18, 7-(dimethylamino)-3H-phenothiazin-3-one]", "values": [{"measurement": "cellular ATP levels", "setting": "FRDA lymphocyte", "result": "significantly increased cellular ATP levels"}, {"measurement": "maintaining ATP levels, compared with methylene blue", "setting": "FRDA lymphocyte; at higher concentrations", "result": "superior to methylene blue"}]}]}
